Earlier results as cited in paper PMC4131438 (ACS chemical biology, 2014).

Columns and labels:
[1] = BIM BH3 aa 146-166 template, staple at R154/E158 i, i+4

For “BIM BH3 peptide (aa 145-164): unmodified BIM BH3 peptide composed of amino acids 145-164”, which “binding to full-length BAX” value (pro-apoptotic BAX; aa 145-164 constructs) is on record?
Its value is “negligible binding”.

What does the source list for “BIM BH3 peptide (aa 146-166): unmodified BIM BH3 peptide, amino acids 146-166”?
binding to pro-apoptotic BAX (pro-apoptotic BAX; fluorescence polarization binding assays, aa 146-166 constructs): no detectable BAX interaction; α-helical content in solution [1]: 20%
